Results on 1 compound are retold here after patent publication US20260355171A1, “INHIBITORS AND USES THEREFOR” (priority 2022, published 2026).

Data set [1] concerns primary neurons. The experiment in a line: Neuronal cell death in the presence of H2O2. The format is cell-based, mouse. The conditions noted are these: 1 or 10 μM compound, 100 μM H2O2. As to the method: Primary neurons were treated with 0.4, 1, 2, 10 or 50 μM of compound 2 or compound 22 (prepared according to Example 2). NSP5 was added to primary neurons at DIV11, and compound 2 or 22 was added 48 hours later. Cells were treated with propidium iodide 48 hours after compound addition. Cells were washed with PBS and fixed with 4% PFA. Cells were then washed and stained with DAPI. Images of cells were taken with ZEISS Axioscan 7 microscope slide scanner. Cell death was determined by Image J analysis, counting the death cell (red, PI)) vs all cells (blue, DAPI).
One hour after compound addition (1 or 10 μM of compound 2 or compound 22) neurons were treated with a cytotoxic agent (100 μM N-methyl-D-aspartate (NMDA), 100 μM H2O2 or 5 μM staurosporine). One hour after treatment with the cytotoxic agent, the media was replaced with fresh media and the neurons were incubated for 24 hours. A final concentration of 1 μM propidium iodide (PI) was added into the well and incubated for 5 mins. Cells were washed with phosphate-buffered saline (PBS) and then fixed with 4% PFA. Cells were then washed and stained with DAPI, and cell death determined as described above.

Data set [2] has as its system PHP.B hSyn-NSP5-V5 adeno-associated virus. The experiment in a line: Rota-rod motor testing. The format is in vivo, mouse. The following applies: 10 mg/kg daily, three-day testing, 15-17 days post AAV, vs Paxlovid. As for the experimental part: (§1) In vivo testing was performed on 5-month-old female C57BL/6 wildtype mice injected intravenously with PHP.B hSyn-NSP5-V5 adeno-associated virus (AAV) and treated daily with compound 22 (10 mg/kg), Paxlovid (nirmatrelvir/ritonavir) (10 mg/kg nirmatrelvir: 3.33 mg/kg ritonavir) or a vehicle control (n=10 per group).
(§2) Motor testing was performed on the Rota-rod five times daily over a three-day testing period as previously described (refer to Ke et al. (2015) Acta Neuropathol, 130: 661-678). Motor coordination was also assessed using the hanging wire test at 14 and 22 days post injection with the AAV, which assessed the time hanging upside down on a wire grid (refer to Chan et al. (2020) Am J Path, 190(8): 1713-1722). Anxiety, disinhibition and exploratory behaviour was assessed using the elevated plus maze (EPM) test as previously described (refer to Ke et al. (2015) Acta Neuropathol, 130: 661-678).

For data set [3] the test system is unchanged. The experiment in a line: Hanging wire test. It counts as in vivo, mouse. The following applies: 10 mg/kg daily, vs Paxlovid and vehicle. As to the method: as §1, §2
Data set [4] can be described thus: Mouse pharmacokinetics, IV administration. The format is in vivo. As for the experimental part:
(§3) Pharmacokinetic parameters of compound 22 (prepared in accordance with Example 2) were determined following intravenous (IV, 3 mg/kg) and intraperitoneal (IP, 10 mg/kg) administration to male C57BL/6 mice.
(§4) IV and IP formulations were prepared separately by dissolving solid compound 22 in dimethyl sulfoxide (DMSO) prior to addition of 50 mM phosphate buffered saline (pH 6.5) using vortexing and sonication to produce a colourless solution, and giving a final DMSO concentration of 5% (v/v) for each formulation. The IV formulation was filtered through a 0.22 μm syringe filter prior to dosing, whereas the IP formulation was not filtered.
(§5) The pharmacokinetics of compound 22 was studied in non-fasted male C57BL/6 mice weighing 21.1-26.5 g. Mice had access to food and water ad libitum throughout the pre- and post-dose sampling period.
(§6) Compound 22 was dosed to mice by bolus injection into the lateral tail vein (2 mL/kg) for IV administration and by injection into the IP cavity (5 mL/kg) for IP administration. After dosing, blood samples were collected up to 24 h (n=3 mice per time point) with a maximum of three samples from each mouse via submandibular bleed (approximately 120 μL). No urine samples were collected as mice were housed in bedded cages. Blood was collected into polypropylene Eppendorf tubes containing heparin as anticoagulant. Once collected, blood samples were centrifuged immediately, supernatant plasma was removed, and stored at −80 °C until analysis by liquid chromatography-mass spectrometry (LC-MS). A summary of the bioanalytical method is included in Table 5.
(§7) Concentrations of test compound in plasma and tissue samples were determined using a liquid chromatography with tandem mass spectrometry (LCMS/MS) method validated for linearity, accuracy, precision, matrix factor and recovery (refer to Table 5).
(§8) Plasma: The plasma calibration curve was prepared by spiking aliquots of blank mouse plasma (25 μL) with test compound standard solutions (5 μL) and internal standard solution (5 μL of diazepam, 5 μg/mL in 50% acetonitrile in water). Test plasma samples (25 μL) were thawed, mixed and then spiked with internal standard solution (5 μL). Plasma protein precipitation was performed by addition of acetonitrile (3-fold volume ratio) and thorough vortex mixing. Samples were centrifuged (RCF=9391×g) for 3 minutes and the supernatant (100 μL) was collected for analysis. The analysis of blood/plasma (B/P) partitioning samples was conducted similarly as for the plasma samples, using protein precipitation with acetonitrile as described above.
(§9) The plasma concentration versus time profile was defined by the average plasma concentration at each sample time, and PK parameters were calculated using non-compartmental methods (PKSolver Version 2.0). Standard calculations for each pharmacokinetic parameter are listed below.

Data set [5] is described as follows: Mouse pharmacokinetics, IP administration. It counts as in vivo. As for the experimental part:
as §3, §4, §5, §6, §7, §8, §9

[6] abbreviates: mouse, plasma, IP 10 mg/kg, male C57BL/6 mice.

Where two headings read alike, the source gives them in different places.

Usually bioavailability stands for the share of a dose that reaches the circulation, judged against a reference dose that is usually intravenous. One may read the Cmax as the highest concentration seen after dosing. By Tmax is commonly meant the time at which the peak concentration occurs. For `NC(=O)C1CCN(c2ncccc2CNCc2cccc3[nH]ccc23)CC1` [Compound 22], the “Protection from H2O2-induced neurotoxicity” value in data set [1] was “did not protect”. Moreover, in data set [2], the “Rota-rod average time of five daily trials” value is “performed significantly better than Paxlovid-treated mice” and the “Rota-rod maximum time of five daily trials” value is “performed significantly better than Paxlovid-treated mice”. Moreover, the “Hanging wire test, mice reaching maximum time” value in data set [3] (14 days post AAV) is reported as “more compound 22-treated mice reaching the maximum time”. Moreover, in data set [3] (22 days post AAV), the “Hanging wire test, mice reaching maximum time” value is “more compound 22-treated mice reaching the maximum time”. Besides, in data set [4] (IV 3 mg/kg), the “Apparent blood volume of distribution” value was “high”, the Blood clearance entry is recorded as “moderate” and the “Duration of measurable plasma concentrations” value is 24 h. Further, the “In vivo blood clearance relative to nominal hepatic blood flow” value in data set [4] (IV 3 mg/kg, mouse) is ~ 50%. Besides, the “In vivo hepatic extraction ratio” value in data set [4] (IV 3 mg/kg, assuming predominantly hepatic clearance) is “moderate”. In addition, in data set [4] (mouse, blood, IV 3 mg/kg, extrapolation to infinity, approximation only, read-out: Blood CL), the clearance was 60.6 mL/min/kg. In addition, the Vd in data set [4] (mouse, blood, IV 3 mg/kg, extrapolation to infinity, approximation only, read-out: Blood VSS) is 16.6 L/kg. Besides, the half-life in data set [4] (mouse, plasma, iv, 3 mg/kg, male C57BL/6 mice, terminal phase not clearly defined, approximation only, read-out: Apparent t1/2 (converted)) was about 14 h. In addition, the AUC(0-t) in data set [4] (mouse, plasma, IV 3 mg/kg, male C57BL/6 mice, read-out: Plasma AUC0-last) came to 1.51 µM·h. For the same compound, in data set [4] (mouse, plasma, IV 3 mg/kg, extrapolation to infinity, approximation only, read-out: Plasma AUC0-inf), the AUC(0-inf) is 1.62 µM·h. Besides, in data set [4] (mouse, plasma, IV 3 mg/kg, extrapolation to infinity, approximation only, read-out: Plasma CL), the clearance was 84.9 mL/min/kg. For the same compound, the Vd in data set [4] (mouse, plasma, IV 3 mg/kg, extrapolation to infinity, approximation only, read-out: Plasma VSS) is 23.3 L/kg. Besides, in data set [5] (IP 10 mg/kg, truncated AUC0-7.5 h, likely slight underestimation, 10 mg/kg, 450 min), the “BA (apparent bioavailability)” value was 47.3%. Further, the bioavailability at 7.5 h in data set [5] (mouse, plasma, ip, 10 mg/kg, truncated AUC0-7.5 h, likely slight underestimation, read-out: BA (apparent bioavailability)) is 47%. Further, in data set [5] (setting [6]), the highest level (Cmax) was 4.25 µM and the time of peak concentration (Tmax) stood at 0.25 h. The AUC(0-t) in data set [5] (mouse, plasma, IP 10 mg/kg, male C57BL/6 mice, read-out: Plasma AUC0-last) was 2.56 µM·h.
